# Assay results taken from PMC3236397 (Frontiers in Pharmacology, 2011).
# Key:
# IP1 = IP1 (Homo sapiens, UniProt P43119); test: GPCR cell-based functional assay, Safety and Liability Panel; conditions: read-out: Percentage inhibition
# B2 = B2 (Homo sapiens, UniProt P30411); test: as above; conditions: read-out: Percentage inhibition
# EP2 = EP2 (Homo sapiens, UniProt P43116); test: as above; conditions: read-out: Percentage inhibition
# OPRM1 = OPRM1 (Homo sapiens, UniProt P35372); test: as above; conditions: OPRM1, read-out: Percentage inhibition
# PAF = PAF (Homo sapiens, UniProt P25105); test: as above; conditions: read-out: Percentage inhibition
# 5-HT2C = 5-HT2C (Homo sapiens, UniProt P28335); test: as above; conditions: read-out: Percentage inhibition
# Trypsin-mediated PARs = test: as above; parameters: species or system human; conditions: 10 μM BIRB0796
# 5-HT2B = 5-HT2B (Homo sapiens, UniProt P41595); test: as above; conditions: read-out: Percentage inhibition
# Chain of 5-HT2B (P41595 whole entry): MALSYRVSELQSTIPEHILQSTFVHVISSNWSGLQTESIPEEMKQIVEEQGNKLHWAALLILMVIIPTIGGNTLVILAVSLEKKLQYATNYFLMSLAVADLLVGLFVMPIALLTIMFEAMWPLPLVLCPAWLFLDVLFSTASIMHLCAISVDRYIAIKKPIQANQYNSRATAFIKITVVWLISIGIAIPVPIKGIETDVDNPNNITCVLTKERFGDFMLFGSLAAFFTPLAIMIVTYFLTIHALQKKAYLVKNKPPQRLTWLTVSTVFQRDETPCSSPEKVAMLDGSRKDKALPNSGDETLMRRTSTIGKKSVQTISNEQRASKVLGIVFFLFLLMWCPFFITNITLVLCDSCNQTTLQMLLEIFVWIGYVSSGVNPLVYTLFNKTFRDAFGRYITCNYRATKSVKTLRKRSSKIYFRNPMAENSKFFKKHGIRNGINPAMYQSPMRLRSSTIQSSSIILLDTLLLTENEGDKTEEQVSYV
# BLT1 = BLT1 (Homo sapiens, UniProt Q15722); test: as above; conditions: read-out: Percentage inhibition
# PK1 = PK1 (Homo sapiens, UniProt Q8TCW9); test: as above; conditions: PK-1, read-out: Percentage inhibition
# ETA = ETA (Homo sapiens, UniProt P25101); test: as above; conditions: read-out: Percentage inhibition
# TSH = TSH (Homo sapiens, UniProt P16473); test: as above; conditions: read-out: Percentage inhibition
# P2Y1 = P2Y1 (Homo sapiens, UniProt P47900); test: as above; conditions: read-out: Percentage inhibition
# MC5 = MC5 (Homo sapiens, UniProt P33032); test: as above; conditions: read-out: Percentage inhibition
# LPA1 = LPA1 (Homo sapiens, UniProt Q92633); test: as above; conditions: read-out: Percentage inhibition
# GPR109A = GPR109A (Homo sapiens, UniProt Q8TDS4); test: as above; conditions: read-out: Percentage inhibition
# CCK2 = CCK2 (Homo sapiens, UniProt P32239); test: as above; conditions: read-out: Percentage inhibition
# D1 = D1 (Homo sapiens, UniProt P21728); test: as above; conditions: read-out: Percentage inhibition
# Chain of D1 (P21728 whole entry): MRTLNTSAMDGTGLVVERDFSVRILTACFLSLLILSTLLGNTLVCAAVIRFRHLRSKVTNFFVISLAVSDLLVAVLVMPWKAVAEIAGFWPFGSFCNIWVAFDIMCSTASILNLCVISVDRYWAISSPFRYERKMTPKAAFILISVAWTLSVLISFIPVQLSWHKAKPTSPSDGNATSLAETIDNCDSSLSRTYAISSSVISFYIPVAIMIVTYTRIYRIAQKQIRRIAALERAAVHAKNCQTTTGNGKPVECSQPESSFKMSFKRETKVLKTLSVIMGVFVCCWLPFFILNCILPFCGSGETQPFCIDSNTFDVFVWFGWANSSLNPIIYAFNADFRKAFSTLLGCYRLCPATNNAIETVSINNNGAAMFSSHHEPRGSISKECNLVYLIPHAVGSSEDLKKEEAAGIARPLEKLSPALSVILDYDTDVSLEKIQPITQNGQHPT
# CB1 = CB1 (Homo sapiens, UniProt P21554); test: as above; conditions: read-out: Percentage inhibition
# A3 = A3 (Homo sapiens, UniProt P0DMS8); test: as above; conditions: read-out: Percentage inhibition
# ETB = ETB (Homo sapiens, UniProt P24530); test: as above; conditions: read-out: Percentage inhibition
# CGRP1 = CGRP1 (Homo sapiens, UniProt O60894+Q16602); test: as above; conditions: read-out: Percentage inhibition
# BB2 = BB2 (Homo sapiens, UniProt P30550); test: as above; conditions: read-out: Percentage inhibition
# CXCR1 = CXCR1 (Homo sapiens, UniProt P25024); test: as above; conditions: read-out: Percentage inhibition
# D5 = D5 (Homo sapiens, UniProt P21918); test: as above; conditions: read-out: Percentage inhibition
# NK1 = NK1 (Homo sapiens, UniProt P25103); test: as above; conditions: read-out: Percentage inhibition
# Y2 = Y2 (Homo sapiens, UniProt P49146); test: as above; conditions: read-out: Percentage inhibition
# AT1 = AT1 (Homo sapiens, UniProt P30556); test: as above; conditions: read-out: Percentage inhibition
# GnRH/LHRH = GnRH/LHRH (Homo sapiens, UniProt P30968); test: as above; conditions: read-out: Percentage inhibition
# D2L = D2L (Homo sapiens, UniProt P14416); test: as above; conditions: read-out: Percentage inhibition
# TP = TP (Homo sapiens, UniProt P21731); test: as above; conditions: read-out: Percentage inhibition
# NK3 = NK3 (Homo sapiens, UniProt P29371); test: as above; conditions: read-out: Percentage inhibition
# CX3CR1 = CX3CR1 (Homo sapiens, UniProt P49238); test: as above; conditions: read-out: Percentage inhibition
# EP3 = EP3 (Homo sapiens, UniProt P43115); test: as above; conditions: read-out: Percentage inhibition
# M1 = M1 (Homo sapiens, UniProt P11229); test: as above; conditions: read-out: Percentage inhibition
# Chain of M1 (P11229 whole entry): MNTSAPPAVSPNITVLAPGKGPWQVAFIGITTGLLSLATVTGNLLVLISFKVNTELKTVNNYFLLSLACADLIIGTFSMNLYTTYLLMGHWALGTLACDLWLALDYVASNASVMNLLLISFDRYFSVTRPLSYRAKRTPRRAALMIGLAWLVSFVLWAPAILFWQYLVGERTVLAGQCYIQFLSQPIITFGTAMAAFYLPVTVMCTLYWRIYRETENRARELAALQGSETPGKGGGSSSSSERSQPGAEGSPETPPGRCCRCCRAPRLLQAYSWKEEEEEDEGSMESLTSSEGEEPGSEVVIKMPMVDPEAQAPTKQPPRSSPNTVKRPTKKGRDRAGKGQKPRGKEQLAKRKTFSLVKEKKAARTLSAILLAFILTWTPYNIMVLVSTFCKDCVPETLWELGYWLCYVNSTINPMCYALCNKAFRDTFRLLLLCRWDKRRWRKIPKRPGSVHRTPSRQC
# CB2 = CB2 (Homo sapiens, UniProt P34972); test: as above; conditions: read-out: Percentage inhibition
# OPRK1 = OPRK1 (Homo sapiens, UniProt P41145); test: as above; conditions: read-out: Percentage inhibition
# Beta 2 = Beta 2 (Homo sapiens, UniProt P07550); test: as above; conditions: read-out: Percentage inhibition
# SST4 = SST4 (Homo sapiens, UniProt P31391); test: as above; conditions: read-out: Percentage inhibition
# A1 = A1 (Homo sapiens, UniProt P30542); test: as above; conditions: read-out: Percentage inhibition
# M3 = M3 (Homo sapiens, UniProt P20309); test: as above; conditions: read-out: Percentage inhibition
# CCR1 = CCR1 (Homo sapiens, UniProt P32246); test: as above; conditions: read-out: Percentage inhibition
# H3 = H3 (Homo sapiens, UniProt Q9Y5N1); test: as above; conditions: read-out: Percentage inhibition
# H2 = H2 (Homo sapiens, UniProt P25021); test: as above; conditions: read-out: Percentage inhibition
# C5aR = C5aR (Homo sapiens, UniProt P21730); test: as above; conditions: read-out: Percentage inhibition
# PTH1 = PTH1 (Homo sapiens, UniProt Q03431); test: as above; conditions: read-out: Percentage inhibition
# V1A = V1A (Homo sapiens, UniProt P37288); test: as above; conditions: read-out: Percentage inhibition
# Chain of V1A (P37288 whole entry): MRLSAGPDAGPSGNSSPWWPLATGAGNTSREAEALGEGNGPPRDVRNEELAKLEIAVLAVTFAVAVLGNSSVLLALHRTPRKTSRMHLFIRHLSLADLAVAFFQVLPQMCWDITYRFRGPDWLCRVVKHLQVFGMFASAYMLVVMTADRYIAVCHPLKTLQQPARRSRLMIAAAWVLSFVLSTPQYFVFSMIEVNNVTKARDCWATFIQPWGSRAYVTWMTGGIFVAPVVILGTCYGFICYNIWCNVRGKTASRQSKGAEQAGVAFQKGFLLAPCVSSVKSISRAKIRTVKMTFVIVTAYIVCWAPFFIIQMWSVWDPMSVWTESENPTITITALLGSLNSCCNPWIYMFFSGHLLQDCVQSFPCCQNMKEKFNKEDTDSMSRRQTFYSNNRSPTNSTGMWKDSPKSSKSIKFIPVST
# FP = FP (Homo sapiens, UniProt P43088); test: as above; conditions: read-out: Percentage inhibition
# V2 = V2 (Homo sapiens, UniProt P30518); test: as above; conditions: read-out: Percentage inhibition
# GAL1 = GAL1 (Homo sapiens, UniProt P47211); test: as above; conditions: read-out: Percentage inhibition
# Alpha1A = Alpha1A (Homo sapiens, UniProt P35348); test: as above; conditions: read-out: Percentage inhibition
# H1 = H1 (Homo sapiens, UniProt P35367); test: as above; conditions: read-out: Percentage inhibition
# Kv1.5 = Kv1.5 (Homo sapiens, UniProt P22460); test: Cardiac ion channel functional assay, Safety and Liability Panel; format: cell-based
# CCR2B = CCR2B (Homo sapiens, UniProt P41597); test: GPCR cell-based functional assay, Safety and Liability Panel; conditions: read-out: Percentage inhibition
# Motilin receptor = Motilin receptor (Homo sapiens, UniProt O43193); test: as above; conditions: read-out: Percentage inhibition
# NMU1 = NMU1 (Homo sapiens, UniProt Q9HB89); test: as above; conditions: read-out: Percentage inhibition
# DP = DP (Homo sapiens, UniProt Q13258); test: as above; conditions: read-out: Percentage inhibition
# Chain of DP (Q13258 whole entry): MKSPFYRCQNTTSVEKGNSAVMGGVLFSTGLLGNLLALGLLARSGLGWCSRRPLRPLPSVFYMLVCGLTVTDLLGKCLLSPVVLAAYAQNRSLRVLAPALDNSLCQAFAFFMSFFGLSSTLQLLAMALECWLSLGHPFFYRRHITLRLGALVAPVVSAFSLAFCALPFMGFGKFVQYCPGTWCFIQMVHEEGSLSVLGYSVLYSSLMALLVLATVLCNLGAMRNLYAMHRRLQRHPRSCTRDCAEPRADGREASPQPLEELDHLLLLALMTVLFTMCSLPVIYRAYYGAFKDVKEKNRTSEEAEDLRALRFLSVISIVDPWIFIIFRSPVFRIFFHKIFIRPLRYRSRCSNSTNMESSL
# 5-HT2A = 5-HT2A (Homo sapiens, UniProt P28223); test: as above; conditions: read-out: Percentage inhibition
# VPAC2 = VPAC2 (Homo sapiens, UniProt P41587); test: as above; conditions: read-out: Percentage inhibition
# hERG = hERG (Homo sapiens, UniProt Q12809); test: in vitro
# CysLT1 = CysLT1 (Homo sapiens, UniProt Q9Y271); test: GPCR cell-based functional assay, Safety and Liability Panel; conditions: read-out: Percentage inhibition
# NTR1 = NTR1 (Homo sapiens, UniProt P30989); test: as above; conditions: read-out: Percentage inhibition
# Alpha2A = Alpha2A (Homo sapiens, UniProt P08913); test: as above; conditions: read-out: Percentage inhibition
# 5-HT1A = 5-HT1A (Homo sapiens, UniProt P08908); test: as above; conditions: read-out: Percentage inhibition
# FPR1 = FPR1 (Homo sapiens, UniProt P21462); test: as above; conditions: read-out: Percentage inhibition
# UT/GPR14 = UT/GPR14 (Homo sapiens, UniProt Q9UKP6); test: as above; conditions: read-out: Percentage inhibition
# M2 = M2 (Homo sapiens, UniProt P08172); test: as above; conditions: read-out: Percentage inhibition
# OT = OT (Homo sapiens, UniProt P30559); test: as above; conditions: read-out: Percentage inhibition
# PAC1 long isoform = test: as above; parameters: species or system human; conditions: 10 μM BIRB0796
# VPAC1 = VPAC1 (Homo sapiens, UniProt P32241); test: as above; conditions: read-out: Percentage inhibition
# S1P3 = S1P3 (Homo sapiens, UniProt Q99500); test: as above; conditions: read-out: Percentage inhibition
# CRF1 = CRF1 (Homo sapiens, UniProt P34998); test: as above; conditions: read-out: Percentage inhibition
# OPRD1 = OPRD1 (Homo sapiens, UniProt P41143); test: as above; conditions: read-out: Percentage inhibition
# Chain of OPRD1 (P41143 whole entry): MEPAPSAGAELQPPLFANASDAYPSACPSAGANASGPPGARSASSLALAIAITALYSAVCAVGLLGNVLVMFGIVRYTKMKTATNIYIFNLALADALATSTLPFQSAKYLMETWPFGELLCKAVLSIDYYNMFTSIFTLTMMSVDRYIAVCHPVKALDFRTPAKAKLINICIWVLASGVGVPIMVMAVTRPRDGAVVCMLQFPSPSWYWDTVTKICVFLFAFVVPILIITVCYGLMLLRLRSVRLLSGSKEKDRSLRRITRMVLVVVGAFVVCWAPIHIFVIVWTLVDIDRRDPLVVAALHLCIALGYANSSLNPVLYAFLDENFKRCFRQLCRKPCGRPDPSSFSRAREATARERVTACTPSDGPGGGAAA
# LPA3 = LPA3 (Homo sapiens, UniProt Q9UBY5); test: as above; conditions: read-out: Percentage inhibition
# Alpha1D = Alpha1D (Homo sapiens, UniProt P25100); test: as above; conditions: read-out: Percentage inhibition
# Beta 1 = Beta 1 (Homo sapiens, UniProt P08588); test: as above; conditions: read-out: Percentage inhibition
# PRP = PRP (Homo sapiens, UniProt P49683); test: as above; conditions: read-out: Percentage inhibition
# Chain of PRP (P49683 whole entry): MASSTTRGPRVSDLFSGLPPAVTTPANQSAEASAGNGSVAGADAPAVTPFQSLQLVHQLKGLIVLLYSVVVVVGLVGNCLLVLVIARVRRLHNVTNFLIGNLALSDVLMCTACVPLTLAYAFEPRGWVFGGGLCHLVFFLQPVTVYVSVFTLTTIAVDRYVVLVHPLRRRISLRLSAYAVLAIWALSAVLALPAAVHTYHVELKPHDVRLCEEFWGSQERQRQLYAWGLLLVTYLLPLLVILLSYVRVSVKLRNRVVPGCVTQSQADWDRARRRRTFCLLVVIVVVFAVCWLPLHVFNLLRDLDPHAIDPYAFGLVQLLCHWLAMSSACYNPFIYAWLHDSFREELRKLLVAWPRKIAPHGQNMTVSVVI
# OX1 = OX1 (Homo sapiens, UniProt O43613); test: as above; conditions: read-out: Percentage inhibition
# Nav1.6 = Nav1.6 (Homo sapiens, UniProt Q9UQD0); test: IonWorks Quattro 2-pulse inactivated-state protocol; format: cell-based; conditions: Predicted IC50 potency values Nav1.6 P1, Pulse 1, 2-pulse protocol
# Chain of Nav1.6 (Q9UQD0 whole entry): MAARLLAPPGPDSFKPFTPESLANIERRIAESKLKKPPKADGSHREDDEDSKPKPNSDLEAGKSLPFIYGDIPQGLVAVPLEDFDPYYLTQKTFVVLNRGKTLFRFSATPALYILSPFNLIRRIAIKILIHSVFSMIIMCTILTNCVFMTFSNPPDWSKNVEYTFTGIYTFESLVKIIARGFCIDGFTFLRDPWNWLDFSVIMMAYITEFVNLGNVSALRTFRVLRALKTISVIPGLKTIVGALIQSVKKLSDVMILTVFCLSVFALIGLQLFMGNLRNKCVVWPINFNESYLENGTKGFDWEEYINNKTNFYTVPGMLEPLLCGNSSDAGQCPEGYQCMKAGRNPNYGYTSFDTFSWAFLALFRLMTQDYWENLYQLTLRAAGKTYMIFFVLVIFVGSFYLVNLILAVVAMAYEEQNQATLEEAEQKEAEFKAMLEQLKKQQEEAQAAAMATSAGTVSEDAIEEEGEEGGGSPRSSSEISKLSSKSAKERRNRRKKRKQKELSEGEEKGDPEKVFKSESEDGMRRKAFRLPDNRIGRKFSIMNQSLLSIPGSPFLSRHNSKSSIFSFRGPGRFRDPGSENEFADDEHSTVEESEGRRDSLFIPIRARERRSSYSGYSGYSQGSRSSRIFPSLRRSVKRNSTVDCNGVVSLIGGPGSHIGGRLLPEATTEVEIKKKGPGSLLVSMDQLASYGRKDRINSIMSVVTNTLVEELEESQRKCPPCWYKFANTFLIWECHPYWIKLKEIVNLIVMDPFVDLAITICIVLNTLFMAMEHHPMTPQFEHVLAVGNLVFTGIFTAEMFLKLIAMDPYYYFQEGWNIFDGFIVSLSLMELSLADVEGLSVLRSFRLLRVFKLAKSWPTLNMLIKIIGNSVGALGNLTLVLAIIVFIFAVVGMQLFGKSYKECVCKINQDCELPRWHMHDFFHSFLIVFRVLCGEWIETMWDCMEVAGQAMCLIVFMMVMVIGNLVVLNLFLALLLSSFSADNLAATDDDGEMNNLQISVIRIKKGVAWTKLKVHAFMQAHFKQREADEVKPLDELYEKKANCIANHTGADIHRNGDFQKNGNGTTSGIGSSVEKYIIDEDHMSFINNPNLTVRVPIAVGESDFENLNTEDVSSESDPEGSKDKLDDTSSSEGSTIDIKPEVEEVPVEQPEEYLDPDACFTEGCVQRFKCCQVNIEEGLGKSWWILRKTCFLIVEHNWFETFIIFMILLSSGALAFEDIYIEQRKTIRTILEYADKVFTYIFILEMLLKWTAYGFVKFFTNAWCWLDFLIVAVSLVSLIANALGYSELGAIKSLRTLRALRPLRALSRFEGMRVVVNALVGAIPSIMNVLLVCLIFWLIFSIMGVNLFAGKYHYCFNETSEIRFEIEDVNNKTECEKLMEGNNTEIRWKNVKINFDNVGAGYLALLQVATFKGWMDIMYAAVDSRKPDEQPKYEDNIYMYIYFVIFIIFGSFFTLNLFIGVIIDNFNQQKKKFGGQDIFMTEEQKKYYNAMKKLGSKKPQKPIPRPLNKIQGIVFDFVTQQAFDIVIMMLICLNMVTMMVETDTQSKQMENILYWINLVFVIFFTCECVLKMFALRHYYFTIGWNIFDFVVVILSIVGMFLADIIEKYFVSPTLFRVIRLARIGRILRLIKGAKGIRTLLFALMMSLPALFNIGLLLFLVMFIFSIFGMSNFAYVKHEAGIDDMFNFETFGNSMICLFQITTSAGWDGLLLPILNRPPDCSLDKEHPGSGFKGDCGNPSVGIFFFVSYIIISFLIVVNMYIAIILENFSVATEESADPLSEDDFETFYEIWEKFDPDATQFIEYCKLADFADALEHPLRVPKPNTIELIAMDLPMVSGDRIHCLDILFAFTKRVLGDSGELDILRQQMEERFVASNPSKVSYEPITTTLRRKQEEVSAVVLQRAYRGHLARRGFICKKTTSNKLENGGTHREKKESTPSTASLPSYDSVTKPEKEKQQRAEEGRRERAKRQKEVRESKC
smiles,measurement,setting,value
Cc1ccc(-n2nc(C(C)(C)C)cc2NC(=O)Nc2ccc(OCCN3CCOCC3)c3ccccc23)cc1 [BIRB0796],inhibition at 10 µM,IP1,12.5%
same,inhibition at 10 µM,B2,-4.5%
same,inhibition at 10 µM,EP2,2.5%
same,inhibition at 10 µM,OPRM1,-2.5%
same,inhibition at 10 µM,PAF,19.5%
same,inhibition at 10 µM,5-HT2C,5.5%
same,Percentage inhibition,Trypsin-mediated PARs,9.0%
same,inhibition at 10 µM,5-HT2B,18.5%
same,inhibition at 10 µM,BLT1,8.5%
same,inhibition at 10 µM,PK1,-6.5%
same,inhibition at 10 µM,ETA,-4%
same,inhibition at 10 µM,TSH,-4%
same,inhibition at 10 µM,P2Y1,10.5%
same,inhibition at 10 µM,MC5,2%
same,inhibition at 10 µM,LPA1,6.5%
same,inhibition at 10 µM,GPR109A,-1%
same,inhibition at 10 µM,CCK2,2%
same,inhibition at 10 µM,D1,23%
same,inhibition at 10 µM,CB1,9%
same,inhibition at 10 µM,A3,20.5%
same,inhibition at 10 µM,ETB,11%
same,inhibition at 10 µM,CGRP1,0%
same,inhibition at 10 µM,BB2,0%
same,inhibition at 10 µM,CXCR1,-1.5%
same,inhibition at 10 µM,D5,14%
same,inhibition at 10 µM,NK1,12%
same,inhibition at 10 µM,Y2,-13.5%
same,inhibition at 10 µM,AT1,-2.5%
same,inhibition at 10 µM,GnRH/LHRH,-20.5%
same,inhibition at 10 µM,D2L,53.5%
same,inhibition at 10 µM,TP,32%
same,inhibition at 10 µM,NK3,17.5%
same,inhibition at 10 µM,CX3CR1,-12%
same,inhibition at 10 µM,EP3,7.5%
same,inhibition at 10 µM,M1,46.5%
same,inhibition at 10 µM,CB2,80%
same,inhibition at 10 µM,OPRK1,-19%
same,inhibition at 10 µM,Beta 2,-9.5%
same,inhibition at 10 µM,SST4,-5.5%
same,inhibition at 10 µM,A1,19.5%
same,inhibition at 10 µM,M3,5%
same,inhibition at 10 µM,CCR1,-6%
same,inhibition at 10 µM,H3,91.5%
same,inhibition at 10 µM,H2,-5.5%
same,inhibition at 10 µM,C5aR,-5.5%
same,inhibition at 10 µM,PTH1,0%
same,inhibition at 10 µM,V1A,2%
same,inhibition at 10 µM,FP,20.5%
same,inhibition at 10 µM,V2,1%
same,inhibition at 10 µM,GAL1,-1.5%
same,inhibition at 10 µM,Alpha1A,6%
same,inhibition at 10 µM,H1,-1.5%
same,inhibition at 10 µM,Kv1.5,≥ 50%
same,inhibition at 10 µM,CCR2B,0%
same,inhibition at 10 µM,Motilin receptor,94.5%
same,inhibition at 10 µM,NMU1,22.5%
same,inhibition at 10 µM,DP,12.5%
same,inhibition at 10 µM,5-HT2A,99.5%
same,inhibition at 10 µM,VPAC2,-4%
same,inhibition at 10 µM,hERG,≥ 50%
same,inhibition at 10 µM,CysLT1,2%
same,inhibition at 10 µM,NTR1,-12%
same,inhibition at 10 µM,Alpha2A,-4%
same,inhibition at 10 µM,5-HT1A,31%
same,inhibition at 10 µM,FPR1,-4.5%
same,inhibition at 10 µM,UT/GPR14,18.5%
same,inhibition at 10 µM,M2,34.5%
same,inhibition at 10 µM,OT,12.5%
same,Percentage inhibition,PAC1 long isoform,3.5%
same,inhibition at 10 µM,VPAC1,-2%
same,inhibition at 10 µM,S1P3,-1.5%
same,inhibition at 10 µM,CRF1,13%
same,inhibition at 10 µM,OPRD1,8.5%
same,inhibition at 10 µM,LPA3,5%
same,inhibition at 10 µM,Alpha1D,3.5%
same,inhibition at 10 µM,Beta 1,-6%
same,inhibition at 10 µM,PRP,3%
same,inhibition at 10 µM,OX1,12%
CCN(CC)CC(=O)Nc1c(C)cccc1C [Lidocaine],IC50,Nav1.6,270 µM
